Laboratory results reported in PubChem BioAssay (NCI).
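The compound was tested at five concentrations on cells cultured in 96-well plates, with a 48-hour exposure period. TGI: concentration producing complete growth inhibition.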

Key:
Experiment in all cases: growth of human tumour cells (NCI), 48 h
HCC-2998 colon = tested on: HCC-2998 colon
HL-60(TB) leukemia = tested on: HL-60(TB) leukemia
K-562 leukemia = tested on: K-562 leukemia
KM12 colon = tested on: KM12 colon
LOX IMVI melanoma = tested on: LOX IMVI melanoma
MDA-N = tested on: MDA-N
OVCAR-8 ovarian = tested on: OVCAR-8 ovarian
SF-295 CNS = tested on: SF-295 CNS
SF-539 CNS = tested on: SF-539 CNS
SR leukemia = tested on: SR leukemia

For `CC1=NN(C(=O)CC(=O)Nc2cccc(Cl)c2)C(=O)C1N=Nc1ccc(S(=O)(=O)c2ccc(N=NC3C(=O)N(C(=O)CC(=O)Nc4cccc(Cl)c4)N=C3C)cc2)cc1` (stereo not given), the TGI (HCC-2998 colon) was greater than 100 µM, the TGI (HL-60(TB) leukemia) was greater than 100 µM and the TGI (K-562 leukemia) was greater than 100 µM. It also gave a TGI (KM12 colon) greater than 100 µM, a TGI (LOX IMVI melanoma) greater than 100 µM and a TGI (MDA-N) greater than 100 µM. For the same compound, the TGI (OVCAR-8 ovarian) was greater than 100 µM, the TGI (SF-295 CNS) was greater than 100 µM and the TGI (SF-539 CNS) was 55.6 µM. The TGI (SR leukemia) was greater than 100 µM.

In the case of `Cc1ccnc2c1c(=O)c1ccccc1n2C`, the TGI (HCC-2998 colon) is reported as greater than 100 µM, the TGI (HL-60(TB) leukemia) is reported as greater than 100 µM and the TGI (K-562 leukemia) is reported as greater than 100 µM. It also gave a TGI (KM12 colon) greater than 100 µM, a TGI (LOX IMVI melanoma) greater than 100 µM and a TGI (MDA-N) greater than 100 µM. For the same compound, the TGI (OVCAR-8 ovarian) was greater than 100 µM, the TGI (SF-295 CNS) was greater than 100 µM and the TGI (SF-539 CNS) was greater than 100 µM. The TGI (SR leukemia) was greater than 100 µM.

For `CCOC(=O)NNC1(SC)NC(=O)c2c(cc(Cl)oc2=O)O1` (stereo not given), the TGI (HCC-2998 colon) was 16.1 µM, the TGI (HL-60(TB) leukemia) was 3.6 µM and the TGI (K-562 leukemia) was 9.07 µM. For the same compound, the TGI (KM12 colon) was 23.6 µM, the TGI (LOX IMVI melanoma) was 6.18 µM and the TGI (MDA-N) was 22.2 µM. It also gave a TGI (OVCAR-8 ovarian) of 5.56 µM, a TGI (SF-295 CNS) of 25.9 µM and a TGI (SF-539 CNS) of 4.57 µM. For the same compound, the TGI (SR leukemia) was 6.69 µM.

`CCC(/C=C/c1ccccc1)=N\NC(=S)N/N=C(/C=C/c1ccccc1)CC` was tested, and the TGI (HCC-2998 colon) was greater than 100 µM, the TGI (HL-60(TB) leukemia) was 62.7 µM and the TGI (K-562 leukemia) was 98.8 µM. It also gave a TGI (KM12 colon) greater than 100 µM, a TGI (LOX IMVI melanoma) greater than 100 µM and a TGI (MDA-N) greater than 100 µM. It also gave a TGI (OVCAR-8 ovarian) of 45.9 µM, a TGI (SF-295 CNS) greater than 100 µM and a TGI (SF-539 CNS) of 91.6 µM. The TGI (SR leukemia) was 91.3 µM.

With `CSCCCNC(=O)c1csc([C@@H](CSC)NC(=O)CCNC(=O)[C@@H](NC(=O)OCC(Br)(Br)Br)C(C)O)n1` (stereo not given in full) the TGI (HCC-2998 colon) was greater than 100 µM, the TGI (HL-60(TB) leukemia) was greater than 100 µM and the TGI (K-562 leukemia) was greater than 100 µM. For the same compound, the TGI (KM12 colon) was greater than 100 µM, the TGI (LOX IMVI melanoma) was greater than 100 µM and the TGI (MDA-N) was greater than 100 µM. For the same compound, the TGI (OVCAR-8 ovarian) was greater than 100 µM, the TGI (SF-295 CNS) was greater than 100 µM and the TGI (SF-539 CNS) was greater than 100 µM. For the same compound, the TGI (SR leukemia) was greater than 100 µM.

With `Cc1ccc(N2C(=O)CC(=O)N(NC(=O)C(C)Oc3ccccc3C)C2=S)cc1` (stereo not given) the TGI (HCC-2998 colon) was greater than 100 µM, the TGI (HL-60(TB) leukemia) was greater than 100 µM and the TGI (K-562 leukemia) was greater than 100 µM. The TGI (KM12 colon) was greater than 100 µM, the TGI (LOX IMVI melanoma) was greater than 100 µM and the TGI (MDA-N) was greater than 100 µM. For the same compound, the TGI (OVCAR-8 ovarian) was greater than 100 µM, the TGI (SF-295 CNS) was greater than 100 µM and the TGI (SF-539 CNS) was greater than 100 µM. The TGI (SR leukemia) was greater than 100 µM.

For `COc1ccc(C2c3cc4c(cc3OC(N3CCOCC3)C2C)OCO4)c(OC)c1` (stereo not given), the TGI (HCC-2998 colon) was 14.5 µM, the TGI (HL-60(TB) leukemia) was greater than 31.4 µM and the TGI (K-562 leukemia) was 25 µM. For the same compound, the TGI (KM12 colon) was 34 µM, the TGI (LOX IMVI melanoma) was 23.8 µM and the TGI (MDA-N) was 5.25 µM. The TGI (OVCAR-8 ovarian) was greater than 74.7 µM, the TGI (SF-295 CNS) was 16.3 µM and the TGI (SF-539 CNS) was 9.64 µM. For the same compound, the TGI (SR leukemia) was greater than 68 µM.

Compound `O=S(=O)(O)Nc1ccc(-c2nc3ccccc3s2)cc1Cl` has a TGI (HCC-2998 colon) greater than 100 µM, a TGI (HL-60(TB) leukemia) greater than 100 µM and a TGI (K-562 leukemia) greater than 100 µM. The TGI (KM12 colon) was greater than 100 µM, the TGI (LOX IMVI melanoma) was greater than 100 µM and the TGI (MDA-N) was greater than 100 µM. It also gave a TGI (OVCAR-8 ovarian) greater than 100 µM, a TGI (SF-295 CNS) greater than 100 µM and a TGI (SF-539 CNS) greater than 100 µM. For the same compound, the TGI (SR leukemia) was greater than 100 µM.

`Cc1ccc(-c2c(C#N)c(S)n(NS(=O)(=O)c3ccccc3)c(=O)c2C#N)cc1` was tested, and the TGI (HCC-2998 colon) was greater than 100 µM, the TGI (HL-60(TB) leukemia) was 41.9 µM and the TGI (K-562 leukemia) was greater than 100 µM. It also gave a TGI (KM12 colon) of 77.6 µM, a TGI (LOX IMVI melanoma) greater than 100 µM and a TGI (MDA-N) greater than 100 µM. The TGI (OVCAR-8 ovarian) was 55.9 µM, the TGI (SF-295 CNS) was greater than 100 µM and the TGI (SF-539 CNS) was 58.3 µM. It also gave a TGI (SR leukemia) of 58.1 µM.

`CC1(C)N=C(N)N=C(N)N1c1ccc(CCCCc2ccc(Cl)cc2Cl)cc1` showed a TGI (HCC-2998 colon) of 17.4 µM, a TGI (HL-60(TB) leukemia) greater than 100 µM and a TGI (K-562 leukemia) greater than 100 µM. It also gave a TGI (KM12 colon) of 2.19 µM, a TGI (LOX IMVI melanoma) of 16.4 µM and a TGI (MDA-N) of 2.67 µM. For the same compound, the TGI (OVCAR-8 ovarian) was 16.1 µM, the TGI (SF-295 CNS) was 22 µM and the TGI (SF-539 CNS) was 8.74 µM. The TGI (SR leukemia) was 60.4 µM.

With `NNC(=O)CCCCCCCC(=O)O` the TGI (HCC-2998 colon) was greater than 100 µM, the TGI (HL-60(TB) leukemia) was greater than 100 µM and the TGI (K-562 leukemia) was greater than 100 µM. The TGI (KM12 colon) was greater than 100 µM, the TGI (LOX IMVI melanoma) was greater than 100 µM and the TGI (MDA-N) was greater than 100 µM. The TGI (OVCAR-8 ovarian) was greater than 100 µM, the TGI (SF-295 CNS) was greater than 100 µM and the TGI (SF-539 CNS) was greater than 100 µM. The TGI (SR leukemia) was greater than 100 µM.

`COC(=O)c1ccc(NCC2=CC(=O)c3ccccc3C2=O)cc1` showed a TGI (HCC-2998 colon) greater than 63.3 µM, a TGI (HL-60(TB) leukemia) greater than 25.9 µM and a TGI (K-562 leukemia) of 32.2 µM. It also gave a TGI (KM12 colon) of 33 µM, a TGI (LOX IMVI melanoma) of 23.3 µM and a TGI (MDA-N) of 26.6 µM. For the same compound, the TGI (OVCAR-8 ovarian) was greater than 100 µM, the TGI (SF-295 CNS) was 35.1 µM and the TGI (SF-539 CNS) was 63.6 µM. For the same compound, the TGI (SR leukemia) was 39.4 µM.
